Structures are written as SMILES. pIC50: −log10 of the molar value. Read-outs that look alike come from different tables or passages of the source.

Format in all cases: biochemical
In one assay the target is Human PDE4C1 (Homo sapiens (Human), UniProt Q08493). In words: PDE4C1 Scintillation Proximity Assay (SPA), inhibition of enzyme activity. Particulars: read-out: Human PDE4C FL. The essentials: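 Recombinant insect-cell-expressed human PDE4C1 […] in 50 mM Tris pH 7.5, 1.3 mM MgCl2, 0.01% Brij with 1 μM cAMP (3H-cAMP tracer), ~20% substrate conversion, inhibitor concentration range. Incubated 30 min at 25° C; stopped with yttrium silicate SPA beads, read by scintillation after 8 h settling.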
A general note: SPA uses beads or plates that emit light when radiolabelled molecules are held near them.

For a further assay, the target named is Human PDE4A3 (Homo sapiens (Human), UniProt P27815). The assay can be described thus: PDE4A3 Scintillation Proximity Assay (SPA), inhibition of enzyme activity. The conditions noted are these: read-out: Human PDE4A FL. The essentials:
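Recombinant human PDE4A3 expressed in insect cells, purified via Ni-NTA, anti-FLAG and size exclusion. SPA run 30 min at 25 °C in 50 mM Tris pH 7.5, 1.3 mM MgCl2, 0.01% Brij with 1 μM cAMP (20 nM 3H-cAMP), […], ~20% substrate conversion; stopped with yttrium silicate beads.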

The target of a further assay is human PDE4D3 (Homo sapiens (Human), UniProt Q08499). The assay can be described thus: PDE4D3 Scintillation Proximity Assay (SPA), inhibition of enzyme activity. Particulars: read-out: Human PDE4D FL. In short, it runs like this:
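His-tagged human PDE4D3 (aa 50–672), expressed in insect cells, hydrolysed 1 μM cAMP (3H tracer plus cold) for 30 min at 25° C in 50 mM Tris pH 7.5, 1.3 mM MgCl2 and 0.01% Brij. Enzyme level was set for ~20% conversion. Product was read by yttrium silicate SPA beads after 8 h settling.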

For a further assay, the target named is Human PDE4B1 (Homo sapiens (Human), UniProt Q07343, S133E/S654A/S659A/S661A). The assay can be described thus: PDE4B1 Scintillation Proximity Assay (SPA), inhibition of enzyme activity. The conditions noted are these: read-out: Human PDE4B FL. In short, it runs like this: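 His-tagged enzyme from baculovirus-infected insect cells, Ni-NTA purified. SPA with 1 μM cAMP (20 nM 3H-cAMP tracer) in 50 mM Tris pH 7.5, 1.3 mM MgCl2, 0.01% Brij, […] PDE4B enzyme for ~20% substrate conversion; 30 min at 25 °C, stopped with yttrium silicate beads, read after 8 h settling.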

Where [1] appears, read: Table 9, geometric mean of 2-9 determinations unless otherwise indicated.
[2] abbreviates: Table 10, geometric mean of 2-9 determinations unless otherwise indicated.

Chain of Human PDE4A3 (P27815 other isoform, or with tags, fused parts or gaps): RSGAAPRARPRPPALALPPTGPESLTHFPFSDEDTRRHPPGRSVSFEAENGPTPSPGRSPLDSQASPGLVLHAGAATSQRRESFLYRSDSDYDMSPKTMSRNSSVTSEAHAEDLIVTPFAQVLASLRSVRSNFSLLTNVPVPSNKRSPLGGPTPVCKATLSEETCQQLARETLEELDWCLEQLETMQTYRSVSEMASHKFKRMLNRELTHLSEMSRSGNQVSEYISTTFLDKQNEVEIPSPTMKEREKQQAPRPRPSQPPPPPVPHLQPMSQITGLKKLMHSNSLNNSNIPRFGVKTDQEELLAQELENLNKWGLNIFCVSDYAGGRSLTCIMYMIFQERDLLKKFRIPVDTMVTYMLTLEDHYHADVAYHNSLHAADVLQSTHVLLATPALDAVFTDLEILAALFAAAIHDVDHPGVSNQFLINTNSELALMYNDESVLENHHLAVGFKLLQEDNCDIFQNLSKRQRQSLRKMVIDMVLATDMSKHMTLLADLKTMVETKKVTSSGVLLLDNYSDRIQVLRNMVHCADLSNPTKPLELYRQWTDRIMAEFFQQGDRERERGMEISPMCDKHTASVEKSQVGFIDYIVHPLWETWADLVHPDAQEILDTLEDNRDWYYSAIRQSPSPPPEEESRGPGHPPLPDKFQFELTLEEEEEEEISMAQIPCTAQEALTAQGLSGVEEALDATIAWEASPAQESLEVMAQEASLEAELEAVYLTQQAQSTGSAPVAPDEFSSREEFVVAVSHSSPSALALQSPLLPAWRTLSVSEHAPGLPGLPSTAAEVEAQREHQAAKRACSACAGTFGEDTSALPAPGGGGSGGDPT
Chain of Human PDE4C1 (Q08493 2-712): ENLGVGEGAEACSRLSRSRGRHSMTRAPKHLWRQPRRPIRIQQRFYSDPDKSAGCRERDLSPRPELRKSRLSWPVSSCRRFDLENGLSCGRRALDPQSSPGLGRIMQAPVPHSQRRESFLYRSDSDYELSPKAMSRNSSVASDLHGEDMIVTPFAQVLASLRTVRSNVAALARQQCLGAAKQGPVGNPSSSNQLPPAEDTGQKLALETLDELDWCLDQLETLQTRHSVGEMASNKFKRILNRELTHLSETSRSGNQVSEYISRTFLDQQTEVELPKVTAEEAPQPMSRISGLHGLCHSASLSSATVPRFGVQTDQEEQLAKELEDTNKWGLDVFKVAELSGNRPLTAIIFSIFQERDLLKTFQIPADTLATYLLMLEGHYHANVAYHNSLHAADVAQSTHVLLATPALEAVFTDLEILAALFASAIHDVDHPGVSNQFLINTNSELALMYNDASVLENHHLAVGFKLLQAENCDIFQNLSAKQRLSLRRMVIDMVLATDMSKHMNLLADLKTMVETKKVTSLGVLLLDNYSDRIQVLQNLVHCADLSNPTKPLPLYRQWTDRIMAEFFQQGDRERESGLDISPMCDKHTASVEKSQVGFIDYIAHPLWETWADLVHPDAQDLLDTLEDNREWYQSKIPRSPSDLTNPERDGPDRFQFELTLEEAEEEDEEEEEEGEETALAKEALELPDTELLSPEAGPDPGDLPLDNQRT
Chain of Human PDE4B1 (Q07343 122-736 S133E/S654A/S659A/S661A): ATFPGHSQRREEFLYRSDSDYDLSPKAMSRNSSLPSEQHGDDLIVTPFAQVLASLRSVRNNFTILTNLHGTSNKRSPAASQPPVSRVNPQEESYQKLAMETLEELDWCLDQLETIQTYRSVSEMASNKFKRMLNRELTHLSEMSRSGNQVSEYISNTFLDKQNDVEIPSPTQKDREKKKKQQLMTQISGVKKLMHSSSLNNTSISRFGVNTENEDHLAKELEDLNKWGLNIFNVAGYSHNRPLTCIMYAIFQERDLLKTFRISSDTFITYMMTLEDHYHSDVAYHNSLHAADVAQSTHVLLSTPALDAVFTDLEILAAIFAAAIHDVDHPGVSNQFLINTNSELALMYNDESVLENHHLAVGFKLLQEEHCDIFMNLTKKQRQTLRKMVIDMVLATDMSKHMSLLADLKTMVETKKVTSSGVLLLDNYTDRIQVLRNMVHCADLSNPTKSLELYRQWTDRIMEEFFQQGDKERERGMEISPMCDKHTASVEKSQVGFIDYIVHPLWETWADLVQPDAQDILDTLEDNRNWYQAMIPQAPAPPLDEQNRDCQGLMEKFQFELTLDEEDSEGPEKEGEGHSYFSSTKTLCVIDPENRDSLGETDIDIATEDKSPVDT
Chain of human PDE4D3 (Q08499 186-808): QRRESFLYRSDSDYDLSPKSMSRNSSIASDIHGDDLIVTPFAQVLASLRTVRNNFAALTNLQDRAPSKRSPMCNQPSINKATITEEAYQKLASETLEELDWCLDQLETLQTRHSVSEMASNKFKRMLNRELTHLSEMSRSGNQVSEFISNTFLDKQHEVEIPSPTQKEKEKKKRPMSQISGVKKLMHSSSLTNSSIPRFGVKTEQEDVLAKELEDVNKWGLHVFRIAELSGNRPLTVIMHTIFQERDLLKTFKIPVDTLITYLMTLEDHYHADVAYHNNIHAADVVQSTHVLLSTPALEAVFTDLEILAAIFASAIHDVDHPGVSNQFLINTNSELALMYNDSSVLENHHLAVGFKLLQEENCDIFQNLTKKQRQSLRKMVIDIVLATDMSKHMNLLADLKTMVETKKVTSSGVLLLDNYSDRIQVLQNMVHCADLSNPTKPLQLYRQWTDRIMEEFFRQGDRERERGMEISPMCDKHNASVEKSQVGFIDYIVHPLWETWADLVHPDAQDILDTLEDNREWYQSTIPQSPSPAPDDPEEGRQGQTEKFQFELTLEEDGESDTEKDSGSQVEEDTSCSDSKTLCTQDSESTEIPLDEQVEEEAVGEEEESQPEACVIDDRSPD

For `Cc1ccc(-c2c3n(c4cccnc24)CCN(C2CC2)C3=O)cc1C` [Example 33, 8-Cyclopropyl-10-(3,4-dimethylphenyl)-7,8-dihydropyrido[2′,3′:4,5]pyrrolo[1,2-a]pyrazin-9(6H)-one], the pIC50 on Human PDE4C1 (setting [1]) is 7.95; on Human PDE4A3 (setting [1]), 8.31; on human PDE4D3 (setting [1]), 6.30; on Human PDE4B1 (setting [1]), 8.22.
With `COc1c(F)cc(-c2c3n(c4cccnc24)CCN(C2CC2)C3=O)cc1F` [Example 24, 8-Cyclopropyl-10-(3,5-difluoro-4-methoxyphenyl)-7,8-dihydropyrido[2′,3′:4,5]pyrrolo[1,2-a]pyrazin-9(6H)-one], the pIC50 on Human PDE4C1 (setting [1]) was 7.61; on Human PDE4A3 (setting [1]), 8.35; on human PDE4D3 (setting [1]), 6.90; on Human PDE4B1 (setting [1]), 8.53.
As to `COc1c(F)cc(-c2c3n(c4nccnc24)CCN(C2CC2)C3=O)cc1F` [Example 59, 8-Cyclopropyl-10-(3,5-difluoro-4-methoxyphenyl)-7,8-dihydropyrrolo[1,2-a:4,5-b′]dipyrazin-9(6H)-one], the pIC50 at Human PDE4C1 (setting [1]) is 7.06; at Human PDE4A3 (setting [1]), 7.90; on human PDE4D3 (setting [1]), 6.54; on Human PDE4B1 (setting [1]), 8.01.
Take `O=C1c2c(-c3ccc(Cl)c(F)c3)c3ncncc3n2CCN1C1CC1` [Example 7, 10-(4-Chloro-3-fluorophenyl)-8-cyclopropyl-7,8-dihydropyrazino[1′,2′: 1,5]pyrrolo[3,2-d]pyrimidin-9(6H)-one]: the pIC50 on Human PDE4C1 (setting [1]) was 7.15; at Human PDE4A3 (setting [1]) it was 7.84; on human PDE4D3 (setting [1]) it was 6.80; at Human PDE4B1 (setting [1]), 8.60.
On to `Cc1cc(-c2c3n(c4cccnc24)CCN(C2CC2)C3=O)ccc1F` [Example 37, 8-Cyclopropyl-10-(4-fluoro-3-methylphenyl)-7,8-dihydropyrido[2′,3′:4,5]pyrrolo[1,2-a]pyrazin-9(6H)-one], for which the pIC50 was 8.48 at Human PDE4C1 (setting [1]), 8.60 at Human PDE4A3 (setting [1]), 7.01 at human PDE4D3 (setting [1]) and 8.42 on Human PDE4B1 (setting [1]).
For `N#Cc1ccc(-c2c3n(c4cccnc24)CC2CCCN2C3=O)cc1` (centres unmarked) [Example 61, 4-(11-Oxo-6a,7,8,9-tetrahydro-6H,11H-pyrido[2′,3′:4,5]pyrrolo[1,2-a]pyrrolo[1,2-d]pyrazin-12-yl)benzonitrile], in that order: 7.22, 7.45, 5.79 and 7.41.
In the case of `O=C1c2c(-c3cc(F)ccc3F)c3ncccc3n2CCN1C1CC1` [Example 46, 8-Cyclopropyl-10-(2,5-difluorophenyl)-7,8-dihydropyrido[2′,3′:4,5]pyrrolo[1,2-a]pyrazin-9(6H)-one], the pIC50 on Human PDE4C1 (setting [1]) is 8.16; on Human PDE4A3 (setting [1]), 8.64; at human PDE4D3 (setting [1]), 6.69; on Human PDE4B1 (setting [1]), 8.39.
For `N#Cc1ccc(-c2c3n(c4cccnc24)CCN(C2CC2)C3=O)c(F)c1` [Example 22, 4-(8-Cyclopropyl-9-oxo-6,7,8,9-tetrahydropyrido[2′,3′:4,5]pyrrolo[1,2-a]pyrazin-10-yl)-3-fluorobenzonitrile], the pIC50 on Human PDE4C1 (setting [1]) was 7.69; at Human PDE4A3 (setting [1]), 8.13; at human PDE4D3 (setting [1]) it was 6.06; on Human PDE4B1 (setting [1]) it was 7.95.
In the case of `N#Cc1ccc(-c2c3n(c4scnc24)CCN(C2CC2)C3=O)cn1` [Example 71, 5-(7-Cyclopropyl-8-oxo-5,6,7,8-tetrahydro[1,3]thiazolo[4′,5′:4,5]pyrrolo[1,2-a]pyrazin-9-yl)pyridine-2-carbonitrile], the pIC50 was 7.28 at Human PDE4C1 (setting [1]), 7.56 at Human PDE4A3 (setting [1]), 5.97 at human PDE4D3 (setting [1]) and 7.36 on Human PDE4B1 (setting [1]).
On to `CS(=O)(=O)c1cccc(-c2c3n(c4cccnc24)CCN(C2CC2)C3=O)c1` [Example 94, 8-Cyclopropyl-10-(3-(methylsulfonyl)phenyl)-7,8-dihydropyrido[2′,3′:4,5]pyrrolo[1,2-a]pyrazin-9(6H)-one], for which the pIC50 at Human PDE4C1 (setting [2]) is 5.98; at Human PDE4A3 (setting [2]) it was 6.14; at human PDE4D3 (setting [2]) it was 6.07; on Human PDE4B1 (setting [2]), 6.33.
Consider `O=C1c2c(-c3ccc(Cl)cc3F)c3ncccc3n2CCN1C1CC1` [Example 47, 10-(4-Chloro-2-fluorophenyl)-8-cyclopropyl-7,8-dihydropyrido[2′,3′:4,5]pyrrolo[1,2-a]pyrazin-9(6H)-one], for which the pIC50 on Human PDE4C1 (setting [1]) is 8.54; at Human PDE4A3 (setting [1]) it was 8.70; on human PDE4D3 (setting [1]) it was 6.85; at Human PDE4B1 (setting [1]) it was 8.94.
On to `O=C1c2c(-c3ccc(F)c(Cl)c3)c3ncccc3n2CCN1C1CC1` [Example 36, 10-(3-Chloro-4-fluorophenyl)-8-cyclopropyl-7,8-dihydropyrido[2′,3′:4,5]pyrrolo[1,2-a]pyrazin-9(6H)-one], for which the pIC50 on Human PDE4C1 (setting [1]) was 8.46; at Human PDE4A3 (setting [1]), more than 9.17; at human PDE4D3 (setting [1]), 7.55; at Human PDE4B1 (setting [1]), more than 8.96.
For `O=C1c2c(-c3cncnc3)c3ncccc3n2CCN1C1CC1` [Example 55, 8-Cyclopropyl-10-(pyrimidin-5-yl)-7,8-dihydropyrido[2′,3′:4,5]pyrrolo[1,2-a]pyrazin-9(6H)-one], the pIC50 was 6.30 at Human PDE4C1 (setting [1]), 6.65 on Human PDE4A3 (setting [1]), 5.43 on human PDE4D3 (setting [1]) and 6.95 at Human PDE4B1 (setting [1]).
As for `Cc1cc(Cl)ccc1-c1c2n(c3cccnc13)CCN(c1ncccn1)C2=O` [Example 73, 10-(4-Chloro-2-methylphenyl)-8-(pyrimidin-2-yl)-7,8-dihydropyrido[2′,3′:4,5]pyrrolo[1,2-a]pyrazin-9(6H)-one], the pIC50 is 6.91 on Human PDE4C1 (setting [1]), 8.12 on Human PDE4A3 (setting [1]), 6.15 at human PDE4D3 (setting [1]) and 7.60 on Human PDE4B1 (setting [1]).

Values taken from US11472805B2, “Tricyclic compounds and their use as phosphodiesterase inhibitors” (Pfizer Inc., priority 2015, dated 2022).
